# In paper PMC10098686, “Bright Molecular Strain Probe Templates for Reporting Protein–Protein Interactions” (Sensors (Basel, Switzerland), 2023):
# Target: T1, Renilla luciferase 8 (RLuc8) (Renilla reniformis, UniProt P27652, A55T/C124A/S130A/K136R/A143M/M185V/M253L/S287L)
# T1 construct: RLuc8 in pcDNA3.1(+), stably expressed in MDA-MB231 cells
# T1 sequence (P27652 1-311 A55T/C124A/S130A/K136R/A143M/M185V/M253L/S287L): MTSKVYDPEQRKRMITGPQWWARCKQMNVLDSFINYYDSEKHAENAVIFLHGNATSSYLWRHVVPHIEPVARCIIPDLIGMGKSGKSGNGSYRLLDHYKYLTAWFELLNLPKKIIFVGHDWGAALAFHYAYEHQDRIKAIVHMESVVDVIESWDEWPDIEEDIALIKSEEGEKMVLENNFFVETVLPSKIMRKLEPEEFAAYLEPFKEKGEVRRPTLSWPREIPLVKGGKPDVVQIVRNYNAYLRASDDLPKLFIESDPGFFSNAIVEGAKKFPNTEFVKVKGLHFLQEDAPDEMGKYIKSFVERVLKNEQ
# Experiment: bioluminescence imaging of MDA-MB231 cells expressing the luciferase
# Format: cell-based
# Settings: stable cells
smiles,measurement,value
Oc1ccc(Cc2nc3c(Cc4ccccc4)nc(-c4ccc(O)cc4)cn3c2O)cc1 [nCTZ],bioluminescence imaging of MDA-MB231 cells expressing the luciferase,exhibited the brightest signal when reacted with nCTZ
